According to patent EP0407137B1, “Benzazine compounds and pharmaceutical uses thereof” (priority 1989, dated 1991):
pIC50: −log10 of the molar value. Structures can show the parent of a compound that is named as a salt.

Tests used:
[1] = system: 5-HT₃ receptor; experiment: Antagonistic effect against von Bezold-Jarish reflex caused by serotonin in anesthetized rats; assay type: in vivo, Male Wistar rats; details: i.v., 5 minutes before serotonin (20 µg/kg i.v.), dose required to antagonize the reflex bradycardia by 50%
Experimental: 5-HT₃ receptor blocking effects of the compounds of the present invention were evaluated based on the antagonistic effects against van Bezold-Jarish reflex caused by administering serotonin to anesthetized rats as an index according to Forzard's method described in Naunyuschmiedeberg's Arch. Pharmacol., vol.326, pp36, 1984.
Male Wistar rats weighing 350-450 g were anesthetized with an intraperitoneal injection of 1.25g/kg of urethane. The left jugular vein was cannulated for the intravenous injection and the left femoral […] was cannulated for the measurement of blood pressure and heart rate. Serotonin (20 µg/kg) was intravenously injected, and the compounds of the present invention were intravenously injected 5 minutes before the challenge with serotonin. The antagonistic activity of the compounds of the present invention against the caused reflex bradycardia was measured and the effective dose (ED₅₀, µg/kg), the dose required to antagonize the maximum activity by 50%, was determined.

[2] = biological target: T1, serotonin 1A (5-HT1A) receptor (Rattus norvegicus, UniProt P19327); experiment: Serotonin binding test (tritium 8-OH-DPAT, crude synaptosome fraction from hippocampus); set-up: species or system Wistar rat; details: tritium 8-OH-DPAT 0.2 nM, 37°C for 12 minutes, rat hippocampus synaptosomes; read-out: Serotonin binding test IC₅₀
T1 sequence (P19327 1-422): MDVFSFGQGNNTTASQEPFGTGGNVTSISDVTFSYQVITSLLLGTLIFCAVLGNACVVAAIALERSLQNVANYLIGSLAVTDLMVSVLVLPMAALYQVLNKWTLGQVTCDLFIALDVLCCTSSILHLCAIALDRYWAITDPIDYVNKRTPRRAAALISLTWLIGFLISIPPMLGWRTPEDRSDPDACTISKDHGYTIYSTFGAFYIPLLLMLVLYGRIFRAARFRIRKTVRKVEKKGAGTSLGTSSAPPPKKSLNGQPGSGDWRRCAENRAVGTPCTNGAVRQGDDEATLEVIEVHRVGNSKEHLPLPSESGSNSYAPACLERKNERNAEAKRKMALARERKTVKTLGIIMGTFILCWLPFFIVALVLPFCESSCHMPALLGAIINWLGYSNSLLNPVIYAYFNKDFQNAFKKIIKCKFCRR
Experimental: Specific serotonin 1A (5-HT1A) receptor binding test was conducted in accordance with the manner described in Journal of the Neurochemistry, vol.44, page 1685, 1985.
Crude synaptosome fraction was separated from hippocampus of 9 to 10 weeks-aged Wistar rat and suspended into 50 mM tris-hydrochloric acid buffer solution (pH 7.4) containing 1 mM manganese chloride.
Next, to the resulting synaptosome suspension were added the test compound of the present invention at several concentrations and tritium 8-OH-DPAT at the terminal concentration of 0.2 nM, and the mixture was allowed to react at 37°C for 12 minutes. After completion of the reaction, the reaction mixture was suction filtered through Whatman GF/B glass filter. The glass filter was washed with 50 mM tris-hydrochloric acid buffer solution (pH 7.4), and then the radioactivity of the residue remaining on the glass filter was measured by liquid scintillation counter. Non-specific binding was determined under the presence of 10⁻⁵M serotonin (5-HT). 50% Inhibition concentration (IC₅₀) of test compound was graphically determined.

[3] = biological target: T2, dopamine D₂ receptor (Rattus norvegicus, UniProt P61169); experiment: Dopamine D₂ binding test (tritium Spiperone, crude synaptosome fraction from corpus striatum); set-up: species or system Wistar rats; details: tritium Spiperone 0.2 nM, 37°C for 20 minutes, rat corpus striatum synaptosomes; read-out: Dopamine D₂ binding test IC₅₀
T2 construct: Crude synaptosome fraction was separated from corpus striatum of 9 to 10 weeks-aged Wistar rats; from tissue; host or cells: rat corpus striatum, crude synaptosome fraction
Experimental: Crude synaptosome fraction was separated from corpus striatum of 9 to 10 weeks-aged Wistar rats and suspended into 50 mM tris-hydrochloric acid buffer solution (pH 7.1) containing 120 mM sodium chloride, 5 mM potassium chloride, 2 mM calcium chloride, 1 mM magnesium chloride, 10 µM pargyline and 0.1% ascorbic acid. Next, to the resulting synaptosome suspension were added the test compound of the present invention at several concentrations and tritium Spiperone at the terminal concentration of 0.2 nM, and the mixture was allowed to react at 37°C for 20 minutes. After completion of the reaction, the reaction mixture was suction filtered through Whatman GF/B glass filter. The glass filter was washed with 50 mM tris-hydrochloric acid buffer solution (pH 7.7), and then the radioactivity of the residue remaining on the glass filter was measured by liquid scintillation counter. Non-specific binding was determined under the presence of […]. 50% Inhibition concentration (IC₅₀) of the test compound was graphically determined.

T2 sequence (P61169 whole entry): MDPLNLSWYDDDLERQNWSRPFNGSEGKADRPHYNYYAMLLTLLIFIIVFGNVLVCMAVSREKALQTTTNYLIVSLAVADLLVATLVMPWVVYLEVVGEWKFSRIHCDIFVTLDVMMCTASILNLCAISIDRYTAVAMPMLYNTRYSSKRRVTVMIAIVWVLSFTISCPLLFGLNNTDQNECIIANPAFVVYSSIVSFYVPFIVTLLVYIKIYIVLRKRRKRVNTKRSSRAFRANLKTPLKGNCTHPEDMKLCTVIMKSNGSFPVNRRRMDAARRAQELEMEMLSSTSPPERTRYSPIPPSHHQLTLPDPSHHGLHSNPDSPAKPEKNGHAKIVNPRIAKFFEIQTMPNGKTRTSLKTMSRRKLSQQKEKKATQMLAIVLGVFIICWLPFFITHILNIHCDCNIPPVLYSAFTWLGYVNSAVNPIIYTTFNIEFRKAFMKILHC

pIC50 [2]	pIC50 [3]	Compound	ED₅₀ [1] [µg/kg]
–	–	CN1CCOc2c(C(=O)NC3CN4CCC3CC4)cc(Cl)cc21.Cl (centres unmarked) [Example 1, 6-chloro-4-methyl-N-(3-quinuclidinyl)-3,4-dihydro-2H-1,4-benzoxazine-8-carboxamide hydrochloride]	0.28
–	–	CN1CC(C)(C)Oc2c(C(=O)NC3CN4CCC3CC4)cc(Cl)cc21.Cl (centres unmarked) [Example 3, 6-chloro-2,2,4-trimethyl-N-(3-quinuclidinyl)-3,4-dihydro-2H-1,4-benzoxazine-8-carboxamide hydrochloride]	0.12
–	–	CN1CC(C)(C)Oc2c(C(=O)N[C@H]3CN4CCC3CC4)cc(Cl)cc21.Cl [Example 4, (R)-6-chloro-2,2,4-trimethyl-N-(3-quinuclidinyl)-3,4-dihydro-2H-1,4-benzoxazine-8-carboxamide hydrochloride]	0.17
–	–	CN1CC(C)(C)Oc2c(C(=O)N[C@@H]3CN4CCC3CC4)cc(Cl)cc21.Cl [Example 5, (S)-6-chloro-2,2,4-trimethyl-N-(3-quinuclidinyl)-3,4-dihydro-2H-1,4-benzoxazine-8-carboxamide hydrochloride]	0.11
–	–	CN1CCOc2c(C(=O)N[C@H]3CN4CCC3CC4)cc(Cl)cc21 [Example 7, (R)-6-chloro-4-methyl-N-(3-quinuclidinyl)-3,4-dihydro-2H-1,4-benzoxazine-8-carboxamide]	0.73
6.12	–	CCN1CCCC1CNC(=O)c1cc(Cl)cc2c1OCCN2C (centres unmarked) [Example 13, 6-chloro-4-methyl-N-[(1-ethyl-2-pyrrolidinyl)methyl]-3,4-dihydro-2H-1,4-benzoxazine-8-carboxamide hydrochloride]	–
7.21	–	CCCCN1CCCC1CNC(=O)c1cc(Cl)cc2c1OCCN2C (centres unmarked) [Example 14, 6-chloro-4-methyl-N-[(1-butyl-2-pyrrolidinyl)-methyl]-3,4-dihydro-2H-1,4-benzoxazine-8-carboxamide hydrochloride]	–
7.62	6.16	CCCCCCCCCN1CCC[C@@H]1CNC(=O)c1cc(Cl)cc2c1OCCN2C [Example 38, (R)-(+)-6-chloro-4-methyl-N-[(1-nonyl-2-pyrrolidinyl)methyl]-3,4-dihydro-2H-1,4-benzoxazine-8-carboxamide]	–
6.38	6.20	CCCCN1CCC[C@@H]1CNC(=O)c1cc(Cl)cc2c1OCCN2C [Example 39, (R)-(+)-N-[(1-butyl-2-pyrrolidinyl)methyl]-6-chloro-4-methyl-3,4-dihydro-2H-1,4-benzoxazine-8-carboxamide]	–
